Measurements from ChEMBL document CHEMBL3045802, “Synthesis and in vitro antitumor activity of new quinoline, pyrimido[4,5-b]quinoline, [1,2,3]triazino[4,5-b]quinoline, and [1,2,4]triazolo[2,3:3,4]pyrimido[6,5-b]quinoline analogs” (2013).

Key:
Format in all cases: functional
SK-MEL-28 = experiment: Cytotoxicity against Homo sapiens (human) SK-MEL-28 cells assessed as growth inhibition at 10 uM after 48 hr by coulter counter analysis; conditions: SK-MEL-28, 48 h, read-out: GI
MDA-MB-435 = experiment: Cytotoxicity against Homo sapiens (human) MDA-MB-435 cells assessed as growth inhibition at 10 uM after 48 hr by coulter counter analysis; conditions: MDA-MB-435, 48 h, read-out: GI
M14 = experiment: Cytotoxicity against Homo sapiens (human) M14 cells assessed as growth inhibition at 10 uM after 48 hr by coulter counter analysis; conditions: M14, 48 h, read-out: GI
LOX IMVI = experiment: Cytotoxicity against Homo sapiens (human) LOXIMVI cells assessed as growth inhibition at 10 uM after 48 hr by coulter counter analysis; conditions: read-out: GI
SNB-19 = experiment: Cytotoxicity against Homo sapiens (human) SNB19 cells assessed as growth inhibition at 10 uM after 48 hr by coulter counter analysis; conditions: SNB-19, 48 h, read-out: GI
SF-539 = experiment: Cytotoxicity against Homo sapiens (human) SF539 cells assessed as growth inhibition at 10 uM after 48 hr by coulter counter analysis; conditions: SF-539, 48 h, read-out: GI
SF-295 = experiment: Cytotoxicity against Homo sapiens (human) SF295 cells assessed as growth inhibition at 10 uM after 48 hr by coulter counter analysis; conditions: SF-295, 48 h, read-out: GI
OVCAR-4 = experiment: Cytotoxicity against Homo sapiens (human) OVCAR4 cells assessed as growth inhibition at 10 uM after 48 hr by coulter counter analysis; conditions: OVCAR-4, 48 h, read-out: GI
OVCAR-3 = experiment: Cytotoxicity against Homo sapiens (human) OVCAR3 cells assessed as growth inhibition at 10 uM after 48 hr by coulter counter analysis; conditions: OVCAR-3, 48 h, read-out: GI
IGROV-1 = experiment: Cytotoxicity against Homo sapiens (human) IGROV1 cells assessed as growth inhibition at 10 uM after 48 hr by coulter counter analysis; conditions: IGROV-1, 48 h, read-out: GI
UACC-257 = experiment: Cytotoxicity against Homo sapiens (human) UACC257 cells assessed as growth inhibition at 10 uM after 48 hr by coulter counter analysis; conditions: UACC-257, 48 h, read-out: GI
MDA-MB-468 = experiment: Cytotoxicity against Homo sapiens (human) MDA-MB-468 cells assessed as growth inhibition at 10 uM after 48 hr by coulter counter analysis; conditions: MDA-MB-468, 48 h, read-out: GI
T47D = experiment: Cytotoxicity against Homo sapiens (human) T47D cells assessed as growth inhibition at 10 uM after 48 hr by coulter counter analysis; conditions: read-out: GI
BT-549 = experiment: Cytotoxicity against Homo sapiens (human) BT549 cells assessed as growth inhibition at 10 uM after 48 hr by coulter counter analysis; conditions: BT-549, 48 h, read-out: GI
Hs-578T = experiment: Cytotoxicity against Homo sapiens (human) Hs578T cells assessed as growth inhibition at 10 uM after 48 hr by coulter counter analysis; conditions: read-out: GI
MDA-MB-231 = experiment: Cytotoxicity against Homo sapiens (human) MDA-MB-231 cells assessed as growth inhibition at 10 uM after 48 hr by coulter counter analysis; conditions: MDA-MB-231, 48 h, read-out: GI
MCF7 = experiment: Cytotoxicity against Homo sapiens (human) MCF7 cells assessed as growth inhibition at 10 uM after 48 hr by coulter counter analysis; conditions: MCF7, 48 h, read-out: GI
DU-145 = experiment: Cytotoxicity against Homo sapiens (human) DU145 cells assessed as growth inhibition at 10 uM after 48 hr by coulter counter analysis; conditions: DU-145, 48 h, read-out: GI
TK-10 = experiment: Cytotoxicity against Homo sapiens (human) TK10 cells assessed as growth inhibition at 10 uM after 48 hr by coulter counter analysis; conditions: TK-10, 48 h, read-out: GI
SN12C = experiment: Cytotoxicity against Homo sapiens (human) SN12C cells assessed as growth inhibition at 10 uM after 48 hr by coulter counter analysis; conditions: read-out: GI
RXF 393 = experiment: Cytotoxicity against Homo sapiens (human) RXF393 cells assessed as growth inhibition at 10 uM after 48 hr by coulter counter analysis; conditions: RXF 393, 48 h, read-out: GI
OVCAR-8 = experiment: Cytotoxicity against Homo sapiens (human) OVCAR8 cells assessed as growth inhibition at 10 uM after 48 hr by coulter counter analysis; conditions: OVCAR-8, 48 h, read-out: GI
OVCAR-5 = experiment: Cytotoxicity against Homo sapiens (human) OVCAR5 cells assessed as growth inhibition at 10 uM after 48 hr by coulter counter analysis; conditions: OVCAR-5, 48 h, read-out: GI
HCT-116 = experiment: Cytotoxicity against Homo sapiens (human) HCT116 cells assessed as growth inhibition at 10 uM after 48 hr by coulter counter analysis; conditions: HCT-116, 48 h, read-out: GI
HCC 2998 = experiment: Cytotoxicity against Homo sapiens (human) HCC2998 cells assessed as growth inhibition at 10 uM after 48 hr by coulter counter analysis; conditions: HCC 2998, 48 h, read-out: GI
COLO 205 = experiment: Cytotoxicity against Homo sapiens (human) COLO205 cells assessed as growth inhibition at 10 uM after 48 hr by coulter counter analysis; conditions: COLO 205, 48 h, read-out: GI
NCI-H460 = experiment: Cytotoxicity against Homo sapiens (human) NCI-H460 cells assessed as growth inhibition at 10 uM after 48 hr by coulter counter analysis; conditions: NCI-H460, 48 h, read-out: GI
NCI-H23 = experiment: Cytotoxicity against Homo sapiens (human) NCI-H23 cells assessed as growth inhibition at 10 uM after 48 hr by coulter counter analysis; conditions: NCI-H23, 48 h, read-out: GI
HOP-92 = experiment: Cytotoxicity against Homo sapiens (human) HOP92 cells assessed as growth inhibition at 10 uM after 48 hr by coulter counter analysis; conditions: HOP-92, 48 h, read-out: GI
A549 = experiment: Cytotoxicity against Homo sapiens (human) A549 cells assessed as growth inhibition at 10 uM after 48 hr by coulter counter analysis; conditions: A549, 48 h, read-out: GI
SR = experiment: Cytotoxicity against Homo sapiens (human) SR cells assessed as growth inhibition at 10 uM after 48 hr by coulter counter analysis; conditions: read-out: GI
RPMI-8226 = experiment: Cytotoxicity against Homo sapiens (human) RPMI8226 cells assessed as growth inhibition at 10 uM after 48 hr by coulter counter analysis; conditions: RPMI-8226, 48 h, read-out: GI
MOLT-4 = experiment: Cytotoxicity against Homo sapiens (human) MOLT4 cells assessed as growth inhibition at 10 uM after 48 hr by coulter counter analysis; conditions: MOLT-4, 48 h, read-out: GI
K562 = experiment: Cytotoxicity against Homo sapiens (human) K562 cells assessed as growth inhibition at 10 uM after 48 hr by coulter counter analysis; conditions: K562, 48 h, read-out: GI

Row | Structure (SMILES) | inhibition of growth at 10 µM (SK-MEL-28) [%] | inhibition of growth at 10 µM (MDA-MB-435) [%] | inhibition of growth at 10 µM (M14) [%] | inhibition of growth at 10 µM (LOX IMVI) [%] | inhibition of growth at 10 µM (SNB-19) [%] | inhibition of growth at 10 µM (SF-539) [%] | inhibition of growth at 10 µM (SF-295) [%] | inhibition of growth at 10 µM (OVCAR-4) [%] | inhibition of growth at 10 µM (OVCAR-3) [%] | inhibition of growth at 10 µM (IGROV-1) [%] | inhibition of growth at 10 µM (UACC-257) [%] | inhibition of growth at 10 µM (MDA-MB-468) [%] | inhibition of growth at 10 µM (T47D) [%] | inhibition of growth at 10 µM (BT-549) [%] | inhibition of growth at 10 µM (Hs-578T) [%] | inhibition of growth at 10 µM (MDA-MB-231) [%] | inhibition of growth at 10 µM (MCF7) [%] | inhibition of growth at 10 µM (DU-145) [%] | inhibition of growth at 10 µM (TK-10) [%] | inhibition of growth at 10 µM (SN12C) [%] | further results
1 | COc1ccc(C2C3=C(CCCC3)Nc3nc(CC#N)[nH]c(=O)c32)cc1OC (stereo not drawn) | < 10 | < 10 | < 10 | < 10 | < 10 | < 10 | < 10 | < 10 | < 10 | < 10 | < 10 | < 10 | < 10 | < 10 | < 10 | < 10 | < 10 | < 10 | < 10 | < 10 | inhibition of growth at 10 µM (RXF 393): < 10%; inhibition of growth at 10 µM (OVCAR-8): < 10%; inhibition of growth at 10 µM (OVCAR-5): < 10%; inhibition of growth at 10 µM (HCT-116): < 10%; inhibition of growth at 10 µM (HCC 2998): < 10%; inhibition of growth at 10 µM (COLO 205): < 10%; inhibition of growth at 10 µM (NCI-H460): < 10%; inhibition of growth at 10 µM (NCI-H23): < 10%; inhibition of growth at 10 µM (HOP-92): < 10%; inhibition of growth at 10 µM (A549): < 10%; inhibition of growth at 10 µM (SR): < 10%; inhibition of growth at 10 µM (RPMI-8226): < 10%; inhibition of growth at 10 µM (MOLT-4): < 10%; inhibition of growth at 10 µM (K562): < 10%
2 | O=c1[nH]c(-c2ccccc2)nc2c1C(c1ccc(Cl)cc1)C1=C(CCCC1)N2 (stereo not drawn) | < 10 | < 10 | < 10 | 11.2 | < 10 | < 10 | < 10 | < 10 | < 10 | < 10 | < 10 | < 10 | 15.5 | < 10 | < 10 | < 10 | < 10 | < 10 | < 10 | < 10 | inhibition of growth at 10 µM (RXF 393): < 10%; inhibition of growth at 10 µM (OVCAR-8): < 10%; inhibition of growth at 10 µM (OVCAR-5): < 10%; inhibition of growth at 10 µM (HCT-116): < 10%; inhibition of growth at 10 µM (HCC 2998): < 10%; inhibition of growth at 10 µM (COLO 205): < 10%; inhibition of growth at 10 µM (NCI-H460): < 10%; inhibition of growth at 10 µM (NCI-H23): < 10%; inhibition of growth at 10 µM (HOP-92): 12%; inhibition of growth at 10 µM (A549): < 10%; inhibition of growth at 10 µM (SR): < 10%; inhibition of growth at 10 µM (RPMI-8226): < 10%; inhibition of growth at 10 µM (MOLT-4): 13.6%; inhibition of growth at 10 µM (K562): 11.2%
